Measurements from US9238039B2, “Pyrazolo[1,5-A]pyrimidines for antiviral treatment” (Gilead Sciences, Inc., priority 2010, dated 2016).

Tested on: RSV strain A2
Test: RSV antiviral cytoprotection assay in Hep2 cells (96-well and 384-well format, Cell TiterGlo read-out)
Format: cell-based, Respiratory Syncytial Virus (RSV)
Settings: human respiratory syncytial virus; for inhibition at 0.5 µM: HEp-2, 0.5 uM, RSV-induced cytopathic effect in Hep2 cells, calculated from fitted dose response curve, normalized to 0% and 100%; for EC50: HEp-2, RSV-induced cytopathic effects, Hep2 cells, class symbols

Structure (SMILES) | EC50 | inhibition at 0.5 µM
Cc1cn2nc([C@@H]3CCCCN3C(=O)c3cccc4nnnn34)cc2nc1N1CC[C@H](N)C1 [Compound 316] | 0.1 to 100 nM | 100%
Cc1cn2nc([C@@H]3CCCCN3C(=O)c3cn4ccsc4n3)cc2nc1N1CC[C@H](N)C1 [Compound 327] | 0.1 to 100 nM | 100%
Cc1cn2nc([C@@H]3CCCCN3C(=O)c3cc(C(C)C)nn3C)cc2nc1N1CC[C@H](N)C1 [Compound 328] | 0.1 to 100 nM | 99%
CCCn1nc(C)cc1C(=O)N1CCCC[C@H]1c1cc2nc(N3CC[C@H](N)C3)c(C)cn2n1 [Compound 329] | 0.1 to 100 nM | 98%
Cc1cn2nc([C@@H]3CCCCN3C(=O)c3ccc(C(N)=O)s3)cc2nc1N1CC[C@H](N)C1 [Compound 336] | 101 to 1000 nM | 78%
Cc1cn2nc([C@@H]3CCCCN3C(=O)c3cccc4ccccc34)cc2nc1N1CC[C@H](N)C1 [Compound 338] | 101 to 1000 nM | 72%
Cc1cn2nc([C@@H]3CCCCN3C(=O)c3nonc3NCCO)cc2nc1N1CC[C@H](N)C1 [Compound 342] | 101 to 1000 nM | 79%
Cc1cn2nc([C@@H]3CCCCN3C(=O)c3ccc4cccnc4c3)cc2nc1N1CC[C@H](N)C1 [Compound 343] | 101 to 1000 nM | 60%
Cc1cn2nc([C@@H]3CCCCN3C(=O)c3nccc4ccccc34)cc2nc1N1CC[C@H](N)C1 [Compound 344] | 0.1 to 100 nM | 100%
Cc1cn2nc([C@@H]3CCCCN3C(=O)c3c(Cl)c(C)nn3C)cc2nc1N1CC[C@H](N)C1 [Compound 348] | 0.1 to 100 nM | 99%
Cc1cn2nc([C@@H]3CCCCN3C(=O)c3ccc4ccn(C)c4c3)cc2nc1N1CC[C@H](N)C1 [Compound 350] | 101 to 1000 nM | 83.6%
Cc1cn2nc([C@@H]3CCCCN3C(=O)c3cccc(C(C)C#N)c3)cc2nc1N1CC[C@H](N)C1 (some centres unmarked) [Compound 351] | 0.1 to 100 nM | 100%
Cc1cc(C(=O)N2CCCC[C@H]2c2cc3nc(N4CC[C@H](N)C4)c(C)cn3n2)n(C(F)F)n1 [Compound 354] | 101 to 1000 nM | 87%
Cc1cn2nc([C@@H]3CCCCN3C(=O)c3cc(C)n(C(F)F)n3)cc2nc1N1CC[C@H](N)C1 [Compound 355] | 0.1 to 100 nM | 96%
Cc1cn2nc([C@@H]3CCCCN3C(=O)c3ccn(CC(F)F)n3)cc2nc1N1CC[C@H](N)C1 [Compound 356] | 0.1 to 100 nM | 100%
Cc1cn2nc([C@@H]3CCCCN3C(=O)c3nn(C)c4ccccc34)cc2nc1N1CC[C@H](N)C1 [Compound 357] | 101 to 1000 nM | 82%

Structure (SMILES) | EC50 | inhibition at 0.5 µM
Cc1cn2nc([C@@H]3CCCCN3C(=O)c3cccn4c(C)nnc34)cc2nc1N1CC[C@H](N)C1 [Compound 358] | 0.1 to 100 nM | 100%
Cc1cn2nc([C@@H]3CCCCN3C(=O)c3cc(-c4ccco4)n[nH]3)cc2nc1N1CC[C@H](N)C1 [Compound 360] | 101 to 1000 nM | 66%
Cc1cn2nc([C@@H]3CCCCN3C(=O)c3ccc4ncsc4c3)cc2nc1N1CC[C@H](N)C1 [Compound 361] | 0.1 to 100 nM | 88%
Cc1cn2nc([C@@H]3CCCCN3C(=O)c3cc4cccnc4s3)cc2nc1N1CC[C@H](N)C1 [Compound 362] | 0.1 to 100 nM | 100%
Cc1cn2nc([C@@H]3CCCCN3C(=O)c3nc4ccccn4c3F)cc2nc1N1CC[C@H](N)C1 [Compound 363] | 0.1 to 100 nM | 99%
Cc1cn2nc([C@@H]3CCCCN3C(=O)c3ccc4c(c3)OCCO4)cc2nc1N1CC[C@H](N)C1 [Compound 364] | 0.1 to 100 nM | 99%
Cc1cn2nc([C@@H]3CCCCN3C(=O)c3cccc(OC(C)C)c3)cc2nc1N1CC[C@H](N)C1 [Compound 365] | 0.1 to 100 nM | 100%
Cc1cn2nc([C@@H]3CCCCN3C(=O)c3cnn(C4CCCC4)c3)cc2nc1N1CC[C@H](N)C1 [Compound 366] | 0.1 to 100 nM | 100%
Cc1cn2nc([C@@H]3CCCCN3C(=O)c3c4c(nn3C)CCCC4)cc2nc1N1CC[C@H](N)C1 [Compound 367] | 0.1 to 100 nM | 94%
Cc1cn2nc([C@@H]3CCCCN3C(=O)c3cc(CC(C)C)nn3C)cc2nc1N1CC[C@H](N)C1 [Compound 368] | 101 to 1000 nM | 58%
Cc1cn2nc([C@@H]3CCCCN3C(=O)c3csc4c3CCCC4)cc2nc1N1CC[C@H](N)C1 [Compound 369] | 0.1 to 100 nM | 91%
Cc1cn2nc([C@@H]3CCCCN3C(=O)c3cc4c(s3)CCCC4)cc2nc1N1CC[C@H](N)C1 [Compound 370] | 0.1 to 100 nM | 99%
CNC(=O)c1cc(C(=O)N2CCCC[C@H]2c2cc3nc(N4CC[C@H](N)C4)c(C)cn3n2)n(C)n1 [Compound 371] | 0.1 to 100 nM | 100%
CCC(=O)Nc1nonc1C(=O)N1CCCC[C@H]1c1cc2nc(N3CC[C@H](N)C3)c(C)cn2n1 [Compound 372] | 101 to 1000 nM | 38%
Cc1cn2nc([C@@H]3CCCCN3C(=O)c3scc4c3OCCO4)cc2nc1N1CC[C@H](N)C1 [Compound 373] | 0.1 to 100 nM | 99%

Second part, led by results:

EC50 | Structure (SMILES) | inhibition at 0.5 µM
0.1 to 100 nM | Cc1cn2nc([C@@H]3CCCCN3C(=O)c3cccc4c3OCC4)cc2nc1N1CC[C@H](N)C1 [Compound 317] | 100%
0.1 to 100 nM | CC(=O)c1cccc(C(=O)N2CCCC[C@H]2c2cc3nc(N4CC[C@H](N)C4)c(C)cn3n2)c1 [Compound 318] | 100%
0.1 to 100 nM | CCOc1cccc(C(=O)N2CCCC[C@H]2c2cc3nc(N4CC[C@H](N)C4)c(C)cn3n2)c1 [Compound 319] | 100%
0.1 to 100 nM | COc1c(C)cccc1C(=O)N1CCCC[C@H]1c1cc2nc(N3CC[C@H](N)C3)c(C)cn2n1 [Compound 320] | 100%
0.1 to 100 nM | COCc1ccc(C(=O)N2CCCC[C@H]2c2cc3nc(N4CC[C@H](N)C4)c(C)cn3n2)cc1 [Compound 321] | 100%
0.1 to 100 nM | COc1ccc(C(=O)N2CCCC[C@H]2c2cc3nc(N4CC[C@H](N)C4)c(C)cn3n2)c(C)c1 [Compound 322] | 100%
0.1 to 100 nM | CCOc1ccccc1C(=O)N1CCCC[C@H]1c1cc2nc(N3CC[C@H](N)C3)c(C)cn2n1 [Compound 323] | 100%
0.1 to 100 nM | COc1cccc(C(=O)N2CCCC[C@H]2c2cc3nc(N4CC[C@H](N)C4)c(C)cn3n2)c1O [Compound 325] | 98%
0.1 to 100 nM | Cc1cn2nc([C@@H]3CCCCN3C(=O)c3cc(C)c(F)c(C)c3)cc2nc1N1CC[C@H](N)C1 [Compound 326] | 100%
101 to 1000 nM | COc1cc(F)ccc1C(=O)N1CCCC[C@H]1c1cc2nc(N3CC[C@H](N)C3)c(C)cn2n1 [Compound 330] | 68%
0.1 to 100 nM | Cc1cn2nc([C@@H]3CCCCN3C(=O)c3cccc(Cl)c3C)cc2nc1N1CC[C@H](N)C1 [Compound 331] | 99%
0.1 to 100 nM | Cc1ccc(C(=O)N2CCCC[C@H]2c2cc3nc(N4CC[C@H](N)C4)c(C)cn3n2)cc1Cl [Compound 332] | 100%
0.1 to 100 nM | Cc1cc(Cl)ccc1C(=O)N1CCCC[C@H]1c1cc2nc(N3CC[C@H](N)C3)c(C)cn2n1 [Compound 333] | 99%
0.1 to 100 nM | Cc1cn2nc([C@@H]3CCCCN3C(=O)c3cccc(C)c3Cl)cc2nc1N1CC[C@H](N)C1 [Compound 334] | 100%
0.1 to 100 nM | Cc1ccc(Cl)cc1C(=O)N1CCCC[C@H]1c1cc2nc(N3CC[C@H](N)C3)c(C)cn2n1 [Compound 335] | 99%
0.1 to 100 nM | Cc1cn2nc([C@@H]3CCCCN3C(=O)c3cc(O)ccc3Cl)cc2nc1N1CC[C@H](N)C1 [Compound 339] | 99%
0.1 to 100 nM | Cc1cn2nc([C@@H]3CCCCN3C(=O)c3ccc(Cl)c(O)c3)cc2nc1N1CC[C@H](N)C1 [Compound 340] | 100%
0.1 to 100 nM | Cc1cc(C(=O)N2CCCC[C@H]2c2cc3nc(N4CC[C@H](N)C4)c(C)cn3n2)c(Cl)nn1 [Compound 341] | 75%
0.1 to 100 nM | Cc1cn2nc([C@@H]3CCCCN3C(=O)c3cc(Cl)cnc3O)cc2nc1N1CC[C@H](N)C1 [Compound 345] | 100%
0.1 to 100 nM | Cc1cn2nc([C@@H]3CCCCN3C(=O)c3ccc(F)c(F)c3O)cc2nc1N1CC[C@H](N)C1 [Compound 346] | 100%
0.1 to 100 nM | Cc1cn2nc([C@@H]3CCCCN3C(=O)c3cc(F)ccc3Cl)cc2nc1N1CC[C@H](N)C1 [Compound 347] | 100%
0.1 to 100 nM | Cc1cn2nc([C@@H]3CCCCN3C(=O)c3cccc4c3ccn4C)cc2nc1N1CC[C@H](N)C1 [Compound 349] | 100%
0.1 to 100 nM | Cc1cn2nc([C@@H]3CCCCN3C(=O)c3ccnc(Cl)c3F)cc2nc1N1CC[C@H](N)C1 [Compound 352] | 100%
0.1 to 100 nM | Cc1cn2nc([C@@H]3CCCCN3C(=O)c3c(F)ccc(F)c3F)cc2nc1N1CC[C@H](N)C1 [Compound 353] | 100%
0.1 to 100 nM | Cc1cn2nc([C@@H]3CCCCN3C(=O)c3ccc4c(c3)nnn4C)cc2nc1N1CC[C@H](N)C1 [Compound 359] | 100%
0.1 to 100 nM | COc1ccc(Cl)c(C(=O)N2CCCC[C@H]2c2cc3nc(N4CC[C@H](N)C4)c(C)cn3n2)c1 [Compound 374] | 100%
0.1 to 100 nM | COc1ccc(C(=O)N2CCCC[C@H]2c2cc3nc(N4CC[C@H](N)C4)c(C)cn3n2)cc1Cl [Compound 375] | 99%
